Values joined by “and” are separate entries in the source; they are usually repeats but may differ in a detail not shown here. Equal values may be shown once.
These compounds were tested against T1, Activated human C1s (Homo sapiens, UniProt P09871) (assay: In vitro inhibition of C1s (Ki determination, C1s-catalyzed hydrolysis of Z-Gly-Arg-S-Bzl, DTNB readout)). Details: substrate Z-Gly-Arg-S-Bzl 45 μM, DTNB 200 μM, C1s 2.3 nM, pH 7.5, 37° C., absorbance at 405 nm.
T1 construct: purchased Calbiochem (La Jolla, Calif.)
T1 sequence (P09871 438-688 limits assumed): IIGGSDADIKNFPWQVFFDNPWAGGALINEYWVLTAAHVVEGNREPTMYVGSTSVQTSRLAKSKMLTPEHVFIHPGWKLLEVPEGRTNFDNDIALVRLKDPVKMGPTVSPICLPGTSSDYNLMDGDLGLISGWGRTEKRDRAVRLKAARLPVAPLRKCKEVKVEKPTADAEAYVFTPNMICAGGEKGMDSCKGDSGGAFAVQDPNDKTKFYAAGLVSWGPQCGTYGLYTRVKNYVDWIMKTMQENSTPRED
T1 sequence (P09871 16-437 partner limits assumed): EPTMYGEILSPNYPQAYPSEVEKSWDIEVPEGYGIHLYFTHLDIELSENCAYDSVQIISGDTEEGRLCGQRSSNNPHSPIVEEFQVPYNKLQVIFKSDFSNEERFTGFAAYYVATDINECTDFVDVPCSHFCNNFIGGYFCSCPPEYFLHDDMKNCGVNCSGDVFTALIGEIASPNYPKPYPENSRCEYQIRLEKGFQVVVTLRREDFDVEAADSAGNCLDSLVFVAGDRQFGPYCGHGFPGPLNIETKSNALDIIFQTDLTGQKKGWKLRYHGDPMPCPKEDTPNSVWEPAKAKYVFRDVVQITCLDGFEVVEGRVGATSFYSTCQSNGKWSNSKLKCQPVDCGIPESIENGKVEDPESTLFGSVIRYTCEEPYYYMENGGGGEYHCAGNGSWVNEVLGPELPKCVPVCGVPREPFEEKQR
Type: biochemical
Experimental: Reagents: All buffer salts were obtained from Sigma Chemical Company (St. Louis, Mo.), and were of the highest purity available. DTNB was purchased from Pierce (Rockford, Ill.). Z-Gly-Arg-S-Bzl was purchased from Enzyme Systems Products (Livermore, Calif.). Activated human C1s was purchased from Calbiochem (La Jolla, Calif.).
Test compounds are prepared as a 10 μM solution in DMSO. Dilutions are prepared in DMSO yielding 7 final concentrations encompassing a 700-fold concentration range.
Reactions were initiated by the addition of a 10 μL aliquot of the enzyme, and the absorbance increase at 405 nm is continuously recorded for 15 minutes in a Molecular Devices plate reader. Final DMSO concentration was 4.3%. […] The ratio of the velocity (rate of change in absorbance as a function of time) for a sample containing no test compound is divided by the velocity of a sample containing test compound, and is plotted as a function of test compound concentration. The data are fit to a linear regression, and the value of the slope of the line calculated. The inverse of the slope is the experimentally determined Ki value.

SMILES | Ki
CSc1sc(C(=N)N)cc1S(=O)(=O)c1cccc(-c2ccc3cccnc3c2)c1 [Example 59, 5-Methylsulfanyl-4-(3-quinolin-7-yl-benzenesulfonyl)-thiophene-2-carboxamidine] | 6 to 23 nM
CSc1sc(C(=N)N)cc1S(=O)(=O)c1cccc(-c2cccc(C)c2)c1 [Example 60, 4-(3′-methyl-biphenyl-3-sulfonyl)-5-methylsulfanyl-thiophene-2-carboxamidine] | 6 to 23 nM
CSc1sc(C(=N)N)cc1S(=O)(=O)c1cccc(-c2cccc(C=O)c2)c1 [Example 61, 4-(3′-Formyl-biphenyl-3-sulfonyl)-5-methylsulfanyl-thiophene-2-carboxamidine] | 6 to 23 nM and 6 nM
CSc1sc(C(=N)N)cc1S(=O)(=O)c1cccc(-c2cccc(N)c2)c1 [Example 62, 4-(3′-Amino-biphenyl-3-sulfonyl)-5-methylsulfanyl-thiophene-2-carboxamidine] | 6 to 23 nM
CSc1sc(C(=N)N)cc1S(=O)(=O)c1cccc(-c2cccc(C(F)(F)F)c2)c1 [Example 63, 5-Methylsulfanyl-4-(3′-trifluoromethyl-biphenyl-3-sulfonyl)-thiophene-2-carboxamidine] | 6 to 23 nM
CSc1sc(C(=N)N)cc1S(=O)(=O)c1cccc(-c2cccc(CO)c2)c1 [Example 64, 4-(3′-Hydroxymethyl-biphenyl-3-sulfonyl)-5-methylsulfanyl-thiophene-2-carboxamidine] | 6 to 23 nM
CSc1sc(C(=N)N)cc1S(=O)(=O)c1cccc(-c2cccc(-c3ccccc3)c2)c1 [Example 65, 5-Methylsulfanyl-4-([1,1′;3′,1″]terphenyl-3-sulfonyl)-thiopbene-2-carboxamidine] | 6 to 23 nM
CSc1sc(C(=N)N)cc1S(=O)(=O)c1cccc(-c2cccc3c2oc2ccccc23)c1 [Example 66, 4-(3-Dibenzofuran-4-yl-benzenesulfonyl)-5-methylsulfanyl-thiophene-2-carboxamidine] | 6 to 23 nM
CSc1sc(C(=N)N)cc1S(=O)(=O)c1cccc(-c2ccccc2C(F)(F)F)c1 [Example 67, 5-Methylsulfanyl-4-(2′-trifluoromethyl-biphenyl-3-sulfonyl)-thiophene-2-carboxamidine] | 6 to 23 nM
CSc1sc(C(=N)N)cc1S(=O)(=O)c1cccc(-c2ccccc2CO)c1 [Example 68, 4-(2′-Hydroxymethyl-biphenyl-3-sulfonyl)-5-methylsulfanyl-thiophene-2-carboxamidine] | 6 to 23 nM
CSc1sc(C(=N)N)cc1S(=O)(=O)c1cccc(-c2ccccc2Cl)c1 [Example 69, 4-(2′-Chloro-biphenyl-3-sulfonyl)-5-methylsulfanyl-thiophene-2-carboxamidine] | 6 to 23 nM
CSc1sc(C(=N)N)cc1S(=O)(=O)c1cccc(-c2cccnc2)c1 [Example 70, 5-Methylsulfanyt-4-(3-pyridin-3-yl-benzenesulfonyl)-thiophene-2-carboxamidine] | 6 to 23 nM
CSc1sc(C(=N)N)cc1S(=O)(=O)c1cccc(-c2cncnc2)c1 [Example 71, 5-Methylsulfanyl-4-(3-pyrimidin-5-yl-benzenesulfonyl)-thiophene-2-carboxamidine] | 6 to 23 nM
CSc1sc(C(=N)N)cc1S(=O)(=O)c1cccc(-c2ccoc2)c1 [Example 72, 4-(3-Furan-3-yl-benzenesulfonyl)-5-methylsulfanyl-thiophene-2-carboxamidine] | 6 to 23 nM
CSc1sc(C(=N)N)cc1S(=O)(=O)c1cccc(-c2cnc3ccccc3c2)c1 [Example 73, 5-Methylsulfanyl-4-(3-quinolin-3-yl-benzenesulfonyl)-thiophene-2-carboxamidine] | 6 to 23 nM
COC(=O)c1ccc(-c2cccc(S(=O)(=O)c3cc(C(=N)N)sc3SC)c2)cc1 [Example 74, 3′-(5-Carbamimidoyl-2-methylsulfanyl-thiophene-3-sulfonyl)-biphenyl-4-carboxylic acid methyl ester] | 6 to 23 nM
CSc1sc(C(=N)N)cc1S(=O)(=O)c1cccc(-c2cc(C)cc(C)c2)c1 [Example 75, 4-(3′,5′-Dimethyl-biphenyl-3-sulfonyl)-5-methylsulfanyl-thiophene-2-carboxamidine] | 6 to 23 nM

SMILES | Ki
CSc1sc(C(=N)N)cc1S(=O)(=O)c1cccc(-c2ccco2)c1 [Example 76, 4-(3-Furan-2-yl-benzenesulfonyl)-5-methylsulfanyl-thiophene-2-carboxamidine] | 6 to 23 nM
CSc1sc(C(=N)N)cc1S(=O)(=O)c1cccc(-c2cccc([N+](=O)[O-])c2)c1 [Example 78, 5-Methylsulfanyl-4-(3′-nitro-biphenyl-3-sulfonyl)-thiophene-2-carboxamidine] | 6 to 23 nM
CSc1sc(C(=N)N)cc1S(=O)(=O)c1cccc(-c2ccc(O)cc2)c1 [Example 79, 4-(4′-Hydroxy-biphenyl-3-sulfonyl)-5-methylsulfanyl-thiophene-2-carboxamidine] | 6 to 23 nM
CSc1sc(C(=N)N)cc1S(=O)(=O)c1cccc(-c2ccc(C=O)cc2)c1 [Example 80, 4-(4′-Formyl-biphenyl-3-sulfonyl)-5-methylsulfanyl-thiophene-2-carboxamidine] | 6 to 23 nM
CSc1sc(C(=N)N)cc1S(=O)(=O)c1cccc(-c2ccc(F)cc2)c1 [Example 81, 4-(4′-Fluoro-biphenyl-3-sulfonyl)-5-methylsulfanyl-thiophene-2-carboxamidine] | 6 to 23 nM
CSc1sc(C(=N)N)cc1S(=O)(=O)c1cccc(-c2ccc(-c3ccccc3)c(F)c2)c1 [Example 82, 4-(2′-Fluoro-[1,1′;4′,1″]terphenyl-3″-sulfonyl)-5-methylsulfanyl-thiophene-2-carboxamidine] | 6 to 23 nM
CSc1sc(C(=N)N)cc1S(=O)(=O)c1cccc(-c2ccc(CO)cc2)c1 [Example 83, 4-(4′-hydroxymethyl-biphenyl-3-sulfonyl)-5-methylsulfanyl-thiophene-2-carboxamidine] | 6 to 23 nM
CSc1sc(C(=N)N)cc1S(=O)(=O)c1cccc(-c2ccc(C#N)cc2)c1 [Example 84, 4-(4′-cyano-biphenyl-3-sulfonyl)-5-methylsulfanyl-thiophene-2-carboxamidine] | 6 to 23 nM
CSc1sc(C(=N)N)cc1S(=O)(=O)c1cccc(-c2ccc(C(C)=O)cc2)c1 [Example 85, 4-(4′-acetyl-biphenyl-3-sulfonyl)-5-methylsulfanyl-thiophene-2-carboxamidine] | 6 to 23 nM
CSc1sc(C(=N)N)cc1S(=O)(=O)c1cccc(-c2ccc(N(C)C)cc2)c1 [Example 86, 4-(4′-dimethylamino-biphenyl-3-sulfonyl)-5-methylsulfanyl-thiophene-2-carboxamidine] | 6 to 23 nM
C=Cc1ccccc1-c1cccc(S(=O)(=O)c2cc(C(=N)N)sc2SC)c1 [Example 87, 5-methylsulfanyl-4-(2′-vinyl-biphenyl-3-sulfonyl)-thiophene-2-carboxamidine] | 6 to 23 nM
CCOc1ccc(-c2cccc(S(=O)(=O)c3cc(C(=N)N)sc3SC)c2)cc1 [Example 88, 4-(4′-ethoxy-biphenyl-3-sulfonyl)-5-methylsulfanyl-thiophene-2-carboxamidine] | 6 to 23 nM
CSc1sc(C(=N)N)cc1S(=O)(=O)c1cccc(-c2c(C)noc2C)c1 [Example 89, 4-[3-(3,5-dimethyl-isoxazol-4-yl)-benzenesulfonyl]-5-methylsulfanyl-thiophene-2-carboxamidine] | 6 to 23 nM
CSc1sc(C(=N)N)cc1S(=O)(=O)c1cccc(-c2ccccc2C)c1 [Example 90, 4-(2′-methyl-biphenyl-3-sulfonyl)-5-methylsulfanyl-thiophene-2-carboxamidine] | 6 to 23 nM
CSc1sc(C(=N)N)cc1S(=O)(=O)c1cccc(-c2cccc3ccccc23)c1 [Example 91, 5-methylsulfanyl-4-(3-naphthalen-1-yl-benzenesulfonyl)-thiophene-2-carboxamidine] | 6 to 23 nM
CSc1sc(C(=N)N)cc1S(=O)(=O)c1cccc(-c2ccc(Cl)s2)c1 [Example 92, 4-[3-(5-Chloro-thiophen-2-yl)-benzenesulfonyl]-5-methylsulfanyl-thiophene-2-carboxamidine] | 6 to 23 nM
CSc1sc(C(=N)N)cc1S(=O)(=O)c1cccc(-c2ccccc2C=O)c1 [Example 93, 4-(2′-formyl-biphenyl-3-sulfonyl)-5-methylsulfanyl-thiophene-2-carboxamidine] | 6 to 23 nM

— US7109354B2, “Thiophene amidines, compositions thereof, and methods of treating complement-mediated diseases and conditions” (3-Dimensional Pharmaceuticals, Inc., priority 2002, dated 2006)
